Molecular target: T1, Oxytocin receptor (Homo sapiens, UniProt P30559)
T1 sequence (P30559 whole entry): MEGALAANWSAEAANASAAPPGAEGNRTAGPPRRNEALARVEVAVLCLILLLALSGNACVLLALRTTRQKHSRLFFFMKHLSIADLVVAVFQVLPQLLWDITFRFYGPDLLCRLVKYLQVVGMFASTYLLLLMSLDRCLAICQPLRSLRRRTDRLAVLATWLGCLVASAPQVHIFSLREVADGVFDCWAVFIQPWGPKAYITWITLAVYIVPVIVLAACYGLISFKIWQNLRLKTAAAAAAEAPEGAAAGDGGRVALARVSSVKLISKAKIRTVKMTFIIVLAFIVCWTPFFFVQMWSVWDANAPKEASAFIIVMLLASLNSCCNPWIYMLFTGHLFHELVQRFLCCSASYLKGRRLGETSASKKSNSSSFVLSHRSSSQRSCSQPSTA
Test: Agonist activity at human oxytocin receptor expressed CHO cells assessed as calcium flux by FLIPR method
Format: functional, cell-based

EC50 [nM]	Structure (SMILES)
1570	O=S(=O)(Nc1ccnn1-c1ncc(C(F)(F)F)cn1)c1ccc(C(F)(F)F)cc1
19	O=S(=O)(Nc1ccnn1-c1ccccn1)c1ccc(Cl)cc1F
